What was measured:
Galectin-1 = Galectin-1 (Homo sapiens (Human), UniProt P09382); test: fluorescence anisotropy assay, galectin-1; assay type: binding; settings: inhibition of the interaction between galectin and a fluorescein tagged saccharide probe
Description: (§1) The affinity of Example 1-14 for galectins were determined by a fluorescence anisotropy assay where the compound was used as an inhibitor of the interaction between galectin and a fluorescein tagged saccharide probe as described Sörme, P., Kahl-Knutsson, B., Huflejt, M., Nilsson, U. J., and Leffler H. (2004) Fluorescence polarization as an analytical tool to evaluate galectin-ligand interactions. Anal. Biochem. 334: 36-47, (Sarme et al., 2004) and Monovalent interactions of Galectin-1 By Salomonsson, Emma; Larumbe, Amaia; Tejler, Johan; Tullberg, Erik; Rydberg, Hanna; Sundin, Anders; Khabut, Areej; Frejd, Torbjorn; Lobsanov, Yuri D.; Rini, James M.; et al, From Biochemistry (2010), 49(44), 9518-9532, (Salomonsson et al., 2010).

Galectin-3 = Galectin-3 (Homo sapiens (Human), UniProt P17931); test: fluorescence anisotropy assay, galectin-3; assay type: binding; settings: inhibition of the interaction between galectin and a fluorescein tagged saccharide probe
Description: as §1

Galectin-1, sequence (P09382 whole entry): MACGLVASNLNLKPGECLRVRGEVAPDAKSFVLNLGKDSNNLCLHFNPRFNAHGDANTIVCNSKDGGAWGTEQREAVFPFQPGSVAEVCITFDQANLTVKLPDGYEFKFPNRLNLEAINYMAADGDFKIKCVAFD
Galectin-3, sequence (P17931 whole entry): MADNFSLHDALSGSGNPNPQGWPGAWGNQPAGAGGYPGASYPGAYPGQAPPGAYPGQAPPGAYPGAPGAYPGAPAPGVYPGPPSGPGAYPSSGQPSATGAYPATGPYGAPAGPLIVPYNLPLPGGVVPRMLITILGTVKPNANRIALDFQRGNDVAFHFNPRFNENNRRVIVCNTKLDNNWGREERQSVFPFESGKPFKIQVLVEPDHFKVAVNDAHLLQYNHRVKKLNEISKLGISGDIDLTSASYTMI

Row | Kd (Galectin-1) | Kd (Galectin-3) | SMILES
1 | 3 nM | 0.4 nM | OCC1O[C@@H](S[C@@H]2O[C@H](CO)C(O)C(n3cc(-c4csc(O)n4)nn3)[C@H]2O)C(O)[C@@H](n2cc(-c3cc(F)c(F)c(F)c3)nn2)[C@H]1O (stereo partly drawn) [Example 1, 3,3′-Dideoxy-3-[4-(3,4,5-trifluorophenyl)-1H-1,2,3-triazol-1-yl]-3′-[4-(2-hydroxythiazol-4-yl)-1H-1,2,3-triazol-1-yl]-1,1′-sulfanediyl-di-β-D-galactopyranoside]
2 | 4 nM | 0.3 nM | OCC1O[C@@H](S[C@@H]2O[C@H](CO)C(O)C(n3cc(-c4csc(O)n4)nn3)[C@H]2O)C(O)[C@@H](n2cc(-c3cc(F)c(Cl)c(F)c3)nn2)[C@H]1O (stereo partly drawn) [Example 2, 3-[4-(4-Chloro-3,5-difluorophenyl)-1H-1,2,3-triazol-1-yl]-3,3′-dideoxy-3′-[4-(2-hydroxythiazol-4-yl)-1H-1,2,3-triazol-1-yl]-1,1′-sulfanediyl-di-β-D-galactopyranoside]
3 | 9 nM | 1 nM | Nc1nc(-c2cn(C3C(O)[C@@H](CO)O[C@@H](S[C@@H]4OC(CO)[C@H](O)[C@H](n5cc(-c6cc(F)c(Cl)c(F)c6)nn5)C4O)[C@@H]3O)nn2)cs1 (stereo partly drawn) [Example 3, 3′-[4-(2-Aminothiazol-4-yl)-1H-1,2,3-triazol-1-yl]-3-[4-(4-chloro-3,5-difluorophenyl)-1H-1,2,3-triazol-1-yl]-3,3′-dideoxy-1,1′-sulfanediyl-di-β-D-galactopyranoside]
4 | 450 nM | 12 nM | OCC1O[C@@H](S[C@@H]2O[C@H](CO)C(O)C(n3cc(-c4ccc(Cl)c(F)c4F)nn3)[C@H]2O)C(O)[C@@H](n2cc(-c3ccc(Cl)c(F)c3F)nn2)[C@H]1O (stereo partly drawn) [Example 14, 1,1′-Sulfanediyl-bis-{3-[4-(4-chloro-2,3-difluorophenyl)-1H-1,2,3-triazol-1-yl]-3-deoxy-β-D-galactopyranoside}]

From patent US20240059728A1, “NOVEL GALACTOSIDE INHIBITOR OF GALECTINS” (GALECTO BIOTECH AB, priority 2021, published 2024)
